Test system: ob/ob mice
Test: In vivo autophagic flux and TFEB-related gene expression in liver
Experimental: FIG. 7A is the result of the experiment in which ob/ob mice were peritoneally injected with 30 mg/kg leupeptin and then after 1 hr, vehicle control or MSL compound were peritoneally administered. Three hours post administration, the liver lysates were prepared and immunoblotted. The numbers above the bands indicates fold changes normalized to beta actin bands. FIG. 7B indicates the concentration of mRNA of TFEB related genes measured by performing RT-PCT using a total RNA isolated from liver sample treated same as above except that Leupeptin was not administered. The values represent mean±S.D of fold changes compared to control mice (vehicle control) obtained from three mice.
Screening of autophagy enhancer. […] Luciferase assay. Firefly and Renilla luciferase assays were conducted using the Dual-Luciferase Reporter Assay System (Promega) according to the manufacturer's recommendation. In brief, cells were lysed in 1× lysis buffer and subjected to a single round of freezing/thawing. Firefly luciferase was determined after mixing 5 μl of lysate with 25 μl of Luciferase Assay Reagent II. Renilla luciferase was then determined after further addition of 20 ul of Stop&Glo Reagent. Cell culture and media and drugs treatment. […] Cytotoxicity was determined by the measurement of LDH release in cell culture media using the LDH kit (Roche), according to the protocol from the manufacturer. […] Imaging and image quantification. […] Formation of acidic vesicular organelles was quantitated by staining the cells with acridine orange (Invitrogen, 5 ug/ml, 10 min). […] Cells or tissues were solubilized in lysis buffer supplemented with protease and phosphatase inhibitors and protein concentration was measured by the Bradford method. Ten to 30 micrograms were loaded on 4-12% Bis-Tris gel (NUPAGE, Invitrogen) or 8-15% SDS-PAGE, transferred to PVDF membranes and analyzed by western blot using the ECL method (Pierce). […] Protein levels were quantified by using ImageJ software analysis. […]

CSc1oc(-c2ccccc2)nc1S(=O)(=O)c1ccc(F)cc1 [MSL]
autophagic activity in the liver measured after leupeptin administration (after 8 weeks of administration): increased | LC3-I to -II conversion in the liver (after pretreatment with leupeptin): increased | expression of TFEB-regulated genes (liver, compared to controls): significantly higher
